Assay [1] deals with His-tagged KRAS G12D protein (Homo sapiens (Human), UniProt P01116, G12D). The assay can be described thus: KRAS G12D TR-FRET Assay. Type of assay: binding. Conditions: read-out: KRAS G12D Binding IC50. Put shortly:
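His-tagged KRAS G12D (diluted to 20 nM in pH 7.4 HEPES buffer with 10 mM MgCl2 and 10 μM GDP) was preincubated with titrated compound for 30 min at room temperature. Biotinylated KRPep-2d peptide (diluted to 20 nM) was then added for 1 h, and displacement was monitored by TR-FRET.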

Assay [2] concerns the target GDP-bound KRAS protein (aa 1-169), containing both G12D and C118A amino acid substitutions (Homo sapiens (Human), UniProt P01116, C118A/G12D). The assay can be described thus: KRAS G12D Coupled Nucleotide Exchange Assay. Conditions: read-out: KRAS G12D Coupled Exchange IC50. Format: biochemical.

Chain of His-tagged KRAS G12D protein (P01116 other isoform, or with tags, fused parts or gaps G12D): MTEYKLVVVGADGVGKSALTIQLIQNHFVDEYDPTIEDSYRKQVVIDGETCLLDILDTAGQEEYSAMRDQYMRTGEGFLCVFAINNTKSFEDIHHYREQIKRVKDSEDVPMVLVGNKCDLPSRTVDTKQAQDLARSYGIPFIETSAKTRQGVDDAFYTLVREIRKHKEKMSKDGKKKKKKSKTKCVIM
Chain of GDP-bound KRAS protein (aa 1-169), containing both G12D and C118A amino acid substitutions (P01116 other isoform, or with tags, fused parts or gaps G12D/C118A): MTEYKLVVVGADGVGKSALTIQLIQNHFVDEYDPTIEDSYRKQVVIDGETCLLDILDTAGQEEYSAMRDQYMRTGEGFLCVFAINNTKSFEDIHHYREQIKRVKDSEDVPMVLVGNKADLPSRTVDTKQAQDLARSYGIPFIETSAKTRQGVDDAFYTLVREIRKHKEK

In the case of `Cc1cc2[nH]ncc2c2c1CCCCO[C@H](C)[C@@H]1CN(CCO1)c1nc(OC[C@@]34CCCN3C[C@H](F)C4)nc3c(F)c-2ncc13` [Example 243, (16R,17S)-30-fluoro-24-(((2R,7aS)-2-fluorotetrahydro-1H-pyrrolo[1,2-a]pyrrol-7a(5H)-yl)methoxy)-9,16-dimethyl-15,18-dioxa-5,6,21,23,25,29-hexaazahexacyclo[24.3.1.1~17,21~.0~2,10~.0~3,7~.0~22,27~]hentriaconta-1(30),2,4,7,9,22,24,26,28-nonaene], the IC50 in assay [1] was 4480 nM; in assay [2], 4070 nM.

Consider `Cc1cc2[nH]ncc2c2c1CCCCO[C@@H](C)[C@@H]1CN(CCO1)c1nc(OC[C@@]34CCCN3C[C@H](F)C4)nc3c(F)c-2ncc13` [Example 244, (16S,17S)-30-fluoro-24-(((2R,7aS)-2-fluorotetrahydro-1H-pyrrolo[1,2-a]pyrrol-7a(5H)-yl)methoxy)-9,16-dimethyl-15,18-dioxa-5,6,21,23,25,29-hexaazahexacyclo[24.3.1.1~17,21~.0~2,10~.0~3,7~.0~22,27~]hentriaconta-1(30),2,4,7,9,22,24,26,28-nonaene], for which the IC50 turned out to be 27 nM in assay [1] and 30 nM in assay [2].

With `Fc1c2ncc3c(nc(OC[C@@]45CCCN4C[C@H](F)C5)nc13)N1CCC[C@@H](C1)c1coc(n1)CCCc1c(Cl)cc3[nH]ncc3c1-2` [Example 245, (18S)-9-chloro-31-fluoro-25-(((2R,7aS)-2-fluorotetrahydro-1H-pyrrolo[1,2-a]pyrrol-7a(5H)-yl)methoxy)-15-oxa-5,6,22,24,26,30,33-heptaazaheptacyclo[25.3.1.1~14,17~.1~18,22~.0~2,10~.0~3,7~.0~23,28~]tritriaconta-1(31),2,4,7,9,14(33),16,23,25,27,29-undecaene], the IC50 in assay [1] amounted to 583 nM; in assay [2], 344 nM.

Regarding `Fc1c2ncc3c(nc(OC[C@@]45CCCN4C[C@H](F)C5)nc13)N1CCC[C@H](C1)Oc1nccc(n1)CCc1c(Cl)cc3[nH]ncc3c1-2` [Example 257, (19R)-9-chloro-32-fluoro-26-(((2R,7aS)-2-fluorotetrahydro-1H-pyrrolo[1,2-a]pyrrol-7a(5H)-yl)methoxy)-18-oxa-5,6,16,23,25,27,31,34-octaazaheptacyclo[26.3.1.1~13,17~.1~19,23~.0~2,10~.0~3,7~.0~24,29~]tetratriaconta-1(32),2,4,7,9,13(34),14,16,24,26,28,30-dodecaene], the IC50 in assay [1] stood at 262 nM; in assay [2], 178 nM.

Regarding `CN1C(=O)COCC[C@H]2CCc3cc4[nH]ncc4c(c32)-c2ncc3c(nc(OC[C@@]45CCCN4C[C@H](F)C5)nc3c2F)N2CCC[C@@H]1C2` [Example 278, (15R,22R)-34-fluoro-8-(((2R,7aS)-2-fluorotetrahydro-1H-pyrrolo[1,2-a]pyrrol-7a(5H)-yl)methoxy)-16-methyl-19-oxa-3,7,9,11,16,28,29-heptaazaheptacyclo[20.9.1.1~2,6~.1~11,15~.0~5,10~.0~25,32~.0~27,31~]tetratriaconta-1(31),2(34),3,5,7,9,25(32),26,29-nonaen-17-one], the IC50 in assay [1] stood at 19300 nM; in assay [2] it was 5900 nM.

Consider `CN1C(=O)COCC[C@@H]2CCc3cc4[nH]ncc4c(c32)-c2ncc3c(nc(OC[C@@]45CCCN4C[C@H](F)C5)nc3c2F)N2CCC[C@@H]1C2` [Example 279, (15R,22S)-34-fluoro-8-(((2R,7aS)-2-fluorotetrahydro-1H-pyrrolo[1,2-a]pyrrol-7a(5H)-yl)methoxy)-16-methyl-19-oxa-3,7,9,11,16,28,29-heptaazaheptacyclo[20.9.1.1~2,6~.1~11,15~.0~5,10~.0~25,32~.0~27,31~]tetratriaconta-1(31),2(34),3,5,7,9,25(32),26,29-nonaen-17-one], for which the IC50 in assay [1] stood at 333 nM; in assay [2], 71 nM.

For `O=C1N[C@H]2C[C@@H](O)CN(C2)c2nc(OC[C@@]34CCCN3C[C@H](F)C4)nc3c(F)c(ncc23)-c2c(c(Cl)cc3[nH]ncc23)CCCO1` [Example 285, (17S,19R)-9-chloro-30-fluoro-24-(((2R,7aS)-2-fluorotetrahydro-1H-pyrrolo[1,2-a]pyrrol-7a(5H)-yl)methoxy)-19-hydroxy-14-oxa-5,6,16,21,23,25,29-heptaazahexacyclo[24.3.1.1~17,21~.0~2,10~.0~3,7~.0~22,27~]hentriaconta-1(30),2,4,7,9,22,24,26,28-nonaen-15-one], the figures for the IC50 in assay [1] and in assay [2] were 1910 nM and 610 nM, respectively.

With `CN1C(=O)OCCCc2c(Cl)cc3[nH]ncc3c2-c2ncc3c(nc(OC[C@@]45CCCN4C[C@H](F)C5)nc3c2F)N2C[C@H](O)C[C@H]1C2` [Example 287, (17S,19R)-9-chloro-30-fluoro-24-(((2R,7aS)-2-fluorotetrahydro-1H-pyrrolo[1,2-a]pyrrol-7a(5H)-yl)methoxy)-19-hydroxy-16-methyl-14-oxa-5,6,16,21,23,25,29-heptaazahexacyclo[24.3.1.1~17,21~.0~2,10~.0~3,7~.0~22,27~]hentriaconta-1(30),2,4,7,9,22,24,26,28-nonaen-15-one], the IC50 in assay [1] stood at 1230 nM; in assay [2] it was 376 nM.

On to `Cc1cc2[nH]ncc2c2c1CCCOC(=O)N[C@@]1(C)CCCCN(C1)c1nc(OC[C@@]34CCCN3C[C@H](F)C4)nc3c(F)c-2ncc13` [Example 293, (26S)-32-fluoro-4-(((2R,7aS)-2-fluorotetrahydro-1H-pyrrolo[1,2-a]pyrrol-7a(5H)-yl)methoxy)-18,26-dimethyl-23-oxa-1,3,5,9,14,15,25-heptaazahexacyclo[24.4.1.1~6,10~.0~2,7~.0~11,19~.0~12,16~]dotriaconta-2,4,6(32),7,9,11,13,16,18-nonaen-24-one], for which the IC50 in assay [1] worked out at 50000 nM; in assay [2] it was 16400 nM.

Consider `Fc1c2ncc3c(nc(OC[C@@]45CCCN4C[C@H](F)C5)nc13)N1CCCC[C@@H](C1)c1cnn(n1)CCCc1c(Cl)cc3[nH]ncc3c1-2` [Example 295, (1S)-10-chloro-33-fluoro-24-(((2R,7aS)-2-fluorotetrahydro-1H-pyrrolo[1,2-a]pyrrol-7a(5H)-yl)methoxy)-4,5,13,14,19,23,25,27,34-nonaazaheptacyclo[25.4.1.1~2,5~.1~18,22~.0~9,17~.0~12,16~.0~21,26~]tetratriaconta-2(34),3,9,11,14,16,18(33),19,21,23,25-undecaene], for which the IC50 turned out to be 2250 nM in assay [1] and 1080 nM in assay [2].

In the case of `Fc1c2ncc3c(nc(OC[C@@]45CCCN4C[C@H](F)C5)nc13)N1CCOC[C@@H](C1)c1cnn(n1)CCCc1c(Cl)cc3[nH]ncc3c1-2` [Example 297, (1S)-10-chloro-33-fluoro-24-(((2R,7aS)-2-fluorotetrahydro-1H-pyrrolo[1,2-a]pyrrol-7a(5H)-yl)methoxy)-30-oxa-4,5,13,14,19,23,25,27,34-nonaazaheptacyclo[25.4.1.1~2,5~.1~18,22~.0~9,17~.0~12,16~.0~21,26~]tetratriaconta-2(34),3,9,11,14,16,18(33),19,21,23,25-undecaene], the results for the IC50 in assay [1] and in assay [2] were 8070 nM and 5980 nM, respectively.

For the molecule `O=C1N[C@@H]2CCCCN(C2)c2nc(OC[C@@]34CCCN3C[C@H](F)C4)nc3c(F)c(ncc23)-c2c3c(cc4[nH]ncc24)CC[C@@H]3CCO1` [Example 302, (16R,22R)-34-fluoro-8-(((2R,7aS)-2-fluorotetrahydro-1H-pyrrolo[1,2-a]pyrrol-7a(5H)-yl)methoxy)-19-oxa-3,7,9,11,17,28,29-heptaazaheptacyclo[20.9.1.1~2,6~.1~11,16~.0~5,10~.0~25,32~.0~27,31~]tetratriaconta-1(31),2(34),3,5,7,9,25(32),26,29-nonaen-18-one], the IC50 in assay [1] is 1270 nM; in assay [2], 831 nM.

For the molecule `CN(C)CC1(COc2nc3c4cc(F)c(c(F)c4n2)-c2c(c(Cl)cc4[nH]ncc24)CCCOC(=O)O[C@@H]2COCCN3C2)CC1` [Example 306, m-(26S)-18-chloro-4-((1-((dimethylamino)methyl)cyclopropyl)methoxy)-9,32-difluoro-23,25,28-trioxa-1,3,5,14,15-pentaazahexacyclo[24.4.1.1~6,10~.0~2,7~.0~11,19~.0~12,16~]dotriaconta-2,4,6,8,10(32),11,13,16,18-nonaen-24-one], the IC50 in assay [1] stood at 695 nM; in assay [2], 450 nM.

With `O=C1OCCCc2c(Cl)cc3[nH]ncc3c2-c2ncc3c(nc(OC[C@@]45CCCN4C[C@H](F)C5)nc3c2F)N2CCOC[C@@](CF)(C2)O1` [Example 310, (26R)-18-chloro-32-fluoro-26-(fluoromethyl)-4-(((2R,7aS)-2-fluorotetrahydro-1H-pyrrolo[1,2-a]pyrrol-7a(5H)-yl)methoxy)-23,25,28-trioxa-1,3,5,9,14,15-hexaazahexacyclo[24.4.1.1~6,10~.0~2,7~.0~11,19~.0~12,16~]dotriaconta-2,4,6(32),7,9,11,13,16,18-nonaen-24-one], the IC50 came to 2260 nM in assay [1] and 1490 nM in assay [2].

Regarding `O=C1OCCc2c(Cl)cc3[nH]ncc3c2-c2ncc3c(nc(OC[C@@]45CCCN4C[C@H](F)C5)nc3c2F)N2CCOC[C@]3(C2)C[C@@H](C3)O1` [Example 317, (1S,3S)-10-chloro-33-fluoro-24-(((2R,7aS)-2-fluorotetrahydro-1H-pyrrolo[1,2-a]pyrrol-7a(5H)-yl)methoxy)-4,6,30-trioxa-13,14,19,23,25,27-hexaazaheptacyclo[25.4.1.1~1,3~.1~18,22~.0~9,17~.0~12,16~.0~21,26~]tetratriaconta-9,11,14,16,18(33),19,21,23,25-nonaen-5-one], the IC50 worked out at 50 nM in assay [1] and 35 nM in assay [2].

As a reminder, the IC50 is the concentration that gives 50% inhibition.

Source of the values: patent publication US20240294551A1 (AMGEN INC., priority 2022, published 2024).
